Laboratory results as given in patent US11873320B2 (REATA PHARMACEUTICALS HOLDINGS, LLC, priority 2013, dated 2024).
Where two headings read alike, the source gives them in different places.

Assays:
[1] = system: glutathione levels; assay: induction of glutathione levels, RAW264.7 mouse model; assay type: cell-based
Excerpt: Glutathione and NADPH are critical factors required for the maintenance of cellular redox capacity. […] Data shown are representative of two independent experiments.

[2] = system: IFNγ-induced NO production; assay: IFNγ-induced NO production in RAW264.7 macrophages (Griess reagent); assay type: cell-based; details: Mus musculus
Experimental: (§1) Inhibition of IFNγ-induced NO production by AIMs is Nrf2-dependent (Dinkova-Kostova, 2005). […] Nitrite (NO2^−) levels in the media were measured as a surrogate for nitric oxide using the Griess reagent assay. Cell viability was assessed using the WST-1 assay. […] 63170, 63171, 63179, and 63189 are compounds of the formulas: […]

[3] = system: Nrf2 protein expression in SK-N-SH cells; assay: in-cell western NQO1 assay, SK-N-SH cells; assay type: cell-based; details: Homo sapiens, 72 h, 3 days incubation, read-out: EC50 for induction of Nrf2 protein expression in SK-N-SH cells
Experimental: HMOX1 protein was not detected in untreated or RTA 408-treated SH-SY5Y cells. […] The same amount of 63170 (54.6 nM) was required.
The EC50 was measured using an in-cell western NQO1 assay where the cells were incubated with the compound under evaluation for 3 days. After incubation with the compound of interest, the cells were reacted with mouse NQO1 antibody and then the next day the cells were reacted with IRDye-800CW-anti-mouse IgG antibody. The target signals were visualized and then analyzed.

[4] = system: TNFα-induced NF-κB activation; assay: TNFα-induced NF-κB luciferase reporter, HeLa/NF-κB-Luc cells; assay type: cell-based; details: Homo sapiens, 1 h pretreatment, TNFα 10 ng/mL 5 h
Excerpt: NF-κB is a transcription factor that plays a central role in the regulation of many immune and inflammatory responses.

[5] = system: RAW264.7 cells; assay: WST-1 cell viability, RAW264.7; assay type: cell-based; details: Mus musculus
Experimental: as §1

[6] = TGA-MS of solid forms; assay type: physicochemical; details: for hygroscopicity: indicated by TGA-MS; for mass loss in TGA-MS between 25 and 200° C.: traces of H2O
Experimental: The TGA was run with TA instruments, data were collected on a thermal balance (Q-5000, TA Instruments, New Castle, Del.) equipped with a data analyzer (Universal Analysis 2000, version 4.5A, TA Instruments, New Castle, Del.). During experiments, the furnace was purged with nitrogen at 60 mL/minute, while the balance chamber was purged at 40 mL/minute. Temperature of the TGA furnace was calibrated using curie points of […] and nickel. Sample size ranged from 2 to 20 mg, and a heating rate of 10° C./minute was used.
For TGA-MS, the thermogravimetric analysis part was the same as above. The mass of evolved gas was analyzed with […] GSD 301 T3 ThermoStar ([…] Vacuum, Asslar, Germany). The instrument was operated and data evaluated with Software Quadstar 32-bit (V7.01, Inficon, LI-9496 Balzers, Liechtenstein).

[7] = 2 h pre-treatment, 20 ng/mL IFNγ 24 h, read-out: IC50, suppression of IFNγ-induced NO production

CC1(C)CC[C@]2(NC(=O)C(F)(F)F)CC[C@]3(C)[C@H](C(=O)C=C4[C@@]5(C)C=C(C#N)C(=O)C(C)(C)[C@@H]5CC[C@]43C)[C@@H]2C1 [compound 63171] gave an EC50 [1] of 23.2 nM, an IC50 [2, 7] of 6.9 ± 0.6 nM and an EC50 [3] of 122 nM.
Molecule CC(=O)N[C@]12CCC(C)(C)C[C@H]1[C@H]1C(=O)C=C3[C@@]4(C)C=C(C#N)C(=O)C(C)(C)[C@@H]4CC[C@@]3(C)[C@]1(C)CC2 [compound 63170] has an IC50 [4] of 953 nM, an EC50 [1] of 12.1 nM and an IC50 [2, 7] of 8 ± 3 nM. It also gave an EC50 [3] of 54.6 nM.
Molecule CC1(C)CC[C@]2(CO)CC[C@]3(C)[C@H](C(=O)C=C4[C@@]5(C)C=C(C#N)C(=O)C(C)(C)[C@@H]5CC[C@]43C)[C@@H]2C1 [compound 63355, reference compound] has an IC50 ([2]; Table 15, read-out: NO IC50 (nM), RAW264.7) of 0.63 ± 0.06 nM and an IC50 [5] of 150 nM.
Molecule CCC(=O)N[C@]12CCC(C)(C)C[C@H]1[C@H]1C(=O)C=C3[C@@]4(C)C=C(C#N)C(=O)C(C)(C)[C@@H]4CC[C@@]3(C)[C@]1(C)CC2 [compound 63189] has an IC50 [4] of 854 nM, an EC50 [1] of 16 nM and an IC50 [2, 7] of 7 ± 2 nM. For the same molecule, the EC50 [3] was 102 nM.
With CC1(C)CC[C@]2(NC(=O)C(C)(F)F)CC[C@]3(C)[C@H](C(=O)C=C4[C@@]5(C)C=C(C#N)C(=O)C(C)(C)[C@@H]5CC[C@]43C)[C@@H]2C1 [Form A] the hygroscopicity [6] was “slightly hygroscopic” and the “mass loss in TGA-MS between 25 and 200° C.” value [6] was roughly 0.5 wt.-%.
With CC1(C)CC[C@]2(NC(=O)C(C)(F)F)CC[C@]3(C)[C@H](C(=O)C=C4[C@@]5(C)C=C(C#N)C(=O)C(C)(C)[C@@H]5CC[C@]43C)[C@@H]2C1 [Form B] the hygroscopicity [6] was “very slightly hygroscopic” and the “mass loss in TGA-MS between 25 and 200° C.” value [6] was roughly 0.2 wt.-%.
For CC1(C)CC[C@]2(NC(=O)CC(F)(F)F)CC[C@]3(C)[C@H](C(=O)C=C4[C@@]5(C)C=C(C#N)C(=O)C(C)(C)[C@@H]5CC[C@]43C)[C@@H]2C1 [compound 63179], the IC50 ([2]; unit given as nm, read-out: IC50, suppression of IFNγ-induced NO production) was 11 ± 2 nM and the EC50 [3] was 126 nM.
